Where two headings read alike, the source gives them in different places.
Assays:
[1] = tested on: T. b. brucei 427WT bloodstream trypomastigotes; test: microbe, parasite or virus in culture; format: cell-based, Trypanosoma brucei brucei; conditions: for SI, selectivity index=EC50(HFF)/EC50(T. b. b. WT): HFF versus T. b. b. 427WT; for RF, resistance factor (+ 5 mM glycerol versus control): Table 2; for EC50: Trypanosoma brucei; for fold more active than compound 4: trypanocidal activity relative to parent compound 4
Experimental: (§1) Organisms and culture media: Only bloodstream trypomastigotes of T. b. brucei were used throughout this study. […] Parasites were cultured in vented flasks at 37 °C and 5 % CO2 atmosphere and they were passaged every 3 days. Bloodstream forms of T. congolense savannah‐type strain IL3000 were cultured in basal MEM medium, supplemented by 10 % fresh goat serum, 14 μL of β‐mercaptoethanol, 800 μL of 200 mM glutamine solution, and 10 mL of penicillin/streptomycin solution per liter of medium (pH 7.3).48 T. congolense were cultured in six‐well plates at 34 °C and 5 % CO2.
(§2) In brief, the assays were performed in 96‐well plates with 2×10^5 cells per well for T. b. brucei or 5×10^5 cells per well for T. congolense, in their respective culture media. First, 200 μL of test compounds’ solutions (400 μM, in T. brucei or T. congolense medium as appropriate) was added to the first well of each 12‐well row, from which doubling dilutions were conducted over one row per test compound. […] Fluorescence was detected using a FLUOstar Optima (BMG Labtech, Durham, NC, USA) at wavelength of 540 nm (excitation), 590 nm (emission). EC50 values were calculated by nonlinear regression using an equation for a sigmoidal dose–response curve with variable slope using Prism 5.0 (GraphPad Software Inc., San Diego, CA, USA).

T. b. brucei B48 = test: microbe, parasite or virus in culture; format: cell-based, Trypanosoma brucei brucei; conditions: for RF, resistance factor relative to WT (B48): B48 versus 427WT; for EC50: Trypanosoma brucei, read-out: EC50 T. b. b. B48
Experimental: as §1, §2

[2] = tested on: T. b. brucei aqp2/aqp3‐KO; test: microbe, parasite or virus in culture; format: cell-based, Trypanosoma brucei brucei; conditions: for EC50: Trypanosoma brucei, read-out: EC50 T. b. b. aqp2/aq3‐KO; for RF, resistance factor relative to WT (aqp2/aqp3-KO): aqp2/aqp3-KO versus 427WT
Experimental: as §1, §2

[3] = Cytotoxicity assay on human foreskin fibroblast (HFF), resazurin; format: cell-based; conditions: human foreskin fibroblast (HFF) cells, tested up to 200 μM, read-out: HFF cytotoxic activity (EC50)
Experimental: Cytotoxicity assay on human foreskin fibroblast (HFF): Toxicity of test compounds to mammalian cells was carried out using the resazurin assay previously described31 with slight modifications as follows. HFF cells were grown in a culture medium containing 500 mL of Dulbecco's modified Eagle's medium (DMEM; Sigma), 50 mL newborn calf serum (NBCS; Gibco), 5 mL penicillin/streptomycin (Gibco), and 5 mL of L‐Glutamax ([…], Gibco), at 37 °C and 5 % CO2 in vented flasks and passaged at 80–85 % of confluence. For the cytotoxicity assay, cells were suspended at 3×10^5 cells mL^−1 and 100 μL aliquots were added to each well of a 96‐well plate. The plate was incubated at 37 °C and 5 % CO2 for 24 h to allow cell adhesion. Serial test compounds dilution was performed in a different 96‐well plate and 100 μL of each dilution was transferred to each well containing cells, resulting in exposure of cells to 200–0.2 μM of test compound. Phenylarsine oxide (Sigma–Aldrich) was used as positive control and drug‐free incubation as negative control. The plates were incubated at 37 °C and 5 % CO2 for an additional 30 h, at which point 10 μL of resazurin solution ([…] in PBS) was added, followed by a final incubation for 24 h. The plates were read and the data analyzed as described above for the trypanosome assay.

T. brucei GAPDH = T. brucei GAPDH (Trypanosoma brucei brucei, UniProt P22512); test: Inhibition of T. brucei GAPDH; format: biochemical; conditions: fixed concentration of 10 μM; data not shown; read-out: decrease of GAPDH activity
Text: […]. […] Limitations of solubility prevented us from testing the series at higher concentrations. However, it must be noted that we cannot exclude the possibility of a low‐affinity inhibition of GAPDH contributing to the trypanocidal effect, as compounds may accumulate to relatively high concentrations within the parasite.

[4] = tested on: T. b. brucei 427WT bloodstream trypomastigotes; test: ATP assay on T. b. brucei (luciferin-luciferase); format: cell-based, Trypanosoma brucei brucei; conditions: approximately 0.5×EC50; after 4–6 h
Experimental: ATP assay on T. b. brucei and HFF cells: Changes in cellular ATP levels due to the exposure of trypanosomes to the test compounds (0.5×EC50) were monitored using the Molecular Probes ATP Determination Kit (A22066, Invitrogen Detection Technologies), based on the luciferin–luciferase bioluminescent enzymatic reaction. Bloodstream trypomastigote cultures of T. brucei s427WT were incubated with and without test compound, and, at each predetermined incubation time, 10^7 cells of each sample were transferred into a microfuge tube and centrifuged at 2000×g for 10 min at 4 °C. The pellet was washed twice with 1 mL of 50 mM Tris⋅HCl (pH 7.4) containing 0.1 mM DTT, and then resuspended in 200 μL of the same buffer. The cells were lysed by sonication on ice (twice for 10 s separated by 30 s), using a Soniprep 150 (MSE) at 8 μm amplitude. The samples were centrifuged at 10 000×g for 10 min at 4 °C and the supernatant was collected, instantly frozen in liquid nitrogen, and stored at −80 °C. Oligomycin (2.0 μg mL^−1) was used as positive control. ATP levels were quantified using the contents of the kit following the manufacturer's instructions; 90 μL of standard reaction solution was added to each well of a 96‐well plate and the background luminescence was recorded in a FLUOstar OPTIMA fluorimeter; 10 μL of each sample was then added to each well. The plate was incubated at 28 °C for 15 min and the luminescence was measured, including a standard curve with an ATP concentration ranging from 1 nM to 1 μM to allow the calculation of the ATP concentrations in each sample. The ATP content was measured at 0, 0.5, 1, 2, 4, 8 and 12 h of incubation with test sample.

[5] = tested on: T. b. brucei 427WT bloodstream trypomastigotes; test: Transmission electron microscopy on T. b. brucei; format: cell-based, Trypanosoma brucei brucei; conditions: 1×EC50; 4 h exposure
Experimental: Transmission electron microscopy assay on T. b. brucei and HFF cells: TEM of bloodstream trypomastigotes (427WT) and of HFF was performed essentially as previously described.52 Briefly, cell cultures were adjusted to 2.5×10^6 cells mL^−1 and incubated in the presence or absence of test compounds at EC50. Cells were fixed overnight at 4 °C in 2.5 % glutaraldehyde and 4 % paraformaldehyde in 0.1 M phosphate buffer (pH 7.4). Samples were washed with 0.1 M phosphate buffer (pH 7.4), post‐fixed in 1 % osmium tetroxide for 1 h on ice, and washed with the phosphate buffer. Cells were next incubated in 0.5 % uranyl acetate solution for 30 min, washed with distilled water and dehydrated in increasing concentrations of acetone (30, 50, 70, 90 and 100 %).

[6] = 72 h, bloodstream trypomastigotes, resazurin, 48 h + 24 h, n=4, read-out: EC50 T. b. b. 427WT
[7] = Table 2, 5 mM glycerol in medium, average±SEM of three, read-out: EC50 s427WT + 5 mM glycerol
[8] = Table 2, no glycerol, average±SEM of three, read-out: EC50 Control s427WT

Sequence of T. brucei GAPDH (P22512 whole entry): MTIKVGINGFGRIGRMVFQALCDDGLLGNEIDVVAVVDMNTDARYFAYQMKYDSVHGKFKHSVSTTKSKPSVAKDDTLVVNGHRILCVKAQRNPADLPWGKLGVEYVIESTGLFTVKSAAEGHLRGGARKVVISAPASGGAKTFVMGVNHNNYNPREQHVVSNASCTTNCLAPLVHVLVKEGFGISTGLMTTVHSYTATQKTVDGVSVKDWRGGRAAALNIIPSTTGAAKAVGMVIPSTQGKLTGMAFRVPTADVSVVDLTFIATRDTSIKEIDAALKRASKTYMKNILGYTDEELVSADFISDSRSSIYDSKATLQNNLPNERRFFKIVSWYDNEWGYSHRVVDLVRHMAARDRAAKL

Compound | SI, selectivity index=EC50(HFF)/EC50(T. b. b. WT) [1] | RF, resistance factor (+ 5 mM glycerol versus control) [1] | EC50 [1, 6] [µM] | EC50 [1, 7] [µM] | EC50 [1, 8] [µM] | fold more active than compound 4 [1] | RF, resistance factor relative to WT (B48) (T. b. brucei B48) | EC50 (T. b. brucei B48) [µM] | EC50 [2] [µM] | RF, resistance factor relative to WT (aqp2/aqp3-KO) [2] | EC50 at 54 h [3] [µM] | inhibition at 10 µM (T. brucei GAPDH) [%] | ATP content, % of untreated [ATP] [4] | ultrastructure by TEM in trypanosomes [5]
O=C1C(Oc2cccc(CCCCCCCCO)c2)=CC(=O)c2c(O)cccc21 [Compound 22, 5‐Hydroxy‐2‐(3‐(8‐hydroxyoctyl)phenoxy)naphthalene‐1,4‐dione] | >26.3 | 1.11 | 7.6 ± 0.7 | 28.2 ± 0.2 | 25.4 ± 1 | up to 10 fold | 0.91 | 6.8 ± 0.1 | 7.3 ± 0.5 | 0.96 | > 200 | < 15 | approximately 50% | mitochondrial damage but no other ultrastructural changes
COc1cccc2c1C(=O)C=C(Oc1cccc(CCCCCCCCO)c1)C2=O [Compound 20, 2‐(3‐(8‐Hydroxyoctyl)phenoxy)‐5‐methoxynaphthalene‐1,4‐dione] | >40 | 1.74 | 5 ± 0.3 | 16 ± 0.2 | 9.2 ± 0.04 | up to 10 fold | 1.1 | 5.3 ± 0.8 | 6.2 ± 0.58 | 1.2 | > 200 | < 15 | approximately 50% | some mitochondria presented an irregular shape
